Laboratory results taken from PubChem BioAssay (NCI).
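Tested at 5 concentrations; 48 h exposure; 96-well plates; endpoints linearly interpolated, else capped at highest concentration. The concentration for full growth arrest is given as TGI.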

Experiments:
Assay in all cases: NCI anticancer screen, dose series, 48 h
SK-MEL-28 melanoma = tested on: SK-MEL-28 melanoma
HS 578T breast = tested on: HS 578T breast
BT-549 breast = tested on: BT-549 breast
A549 NSCLC = tested on: A549 NSCLC
HCT-15 colon = tested on: HCT-15 colon
HCC-2998 colon = tested on: HCC-2998 colon
K-562 leukemia = tested on: K-562 leukemia
COLO 205 colon = tested on: COLO 205 colon
SNB-19 CNS = tested on: SNB-19 CNS
DU-145 prostate = tested on: DU-145 prostate

Compound	TGI (SK-MEL-28 melanoma)	TGI (HS 578T breast)	TGI (BT-549 breast)	TGI (A549 NSCLC)	TGI (HCT-15 colon)	TGI (HCC-2998 colon)	TGI (K-562 leukemia)	TGI (COLO 205 colon)	TGI (SNB-19 CNS)	TGI (DU-145 prostate)
C=C1OC(c2ccccc2NC)=NC12CCCCC2	> 100 µM	> 100 µM	> 100 µM	> 100 µM	> 100 µM	> 100 µM	> 100 µM	> 100 µM	> 100 µM	> 100 µM
CN(C)c1ccc(/C=C(\NC(=O)c2ccccc2)c2nn(C)c(=O)o2)cc1	> 100 µM	> 100 µM	> 100 µM	> 100 µM	> 100 µM	> 100 µM	> 100 µM	> 100 µM	80 µM	> 100 µM
Cc1cc(S(=O)(=O)/N=C(/C(=C=[N-])C#N)[n+]2ccc(N(C)C)cc2)c(SCC(=O)O)cc1Cl	> 100 µM	> 100 µM	> 100 µM	> 100 µM	> 100 µM	> 100 µM	> 100 µM	> 100 µM	> 100 µM	> 100 µM
CN(C)CCNC(=O)c1cc(Cl)cc2ccc(-c3ccccc3)nc12	16.1 µM			12.4 µM	9.49 µM	13.8 µM	8.17 µM	4.28 µM	18.8 µM	
O=C1C=CC=C/C1=C1\N=C(c2ccccc2OCC(=O)c2ccccc2)SS1	> 100 µM	> 100 µM	> 100 µM	> 100 µM	> 100 µM	> 100 µM	> 100 µM		> 100 µM	
NCCCCNCCCNC(=O)c1nc(-c2nc(CCN)sc2Cl)sc1Cl	> 100 µM			> 100 µM	> 100 µM	> 100 µM	> 100 µM	> 100 µM	> 100 µM	
OCCOCn1nncc1Cn1ncc2c(SCc3ccccc3)ncnc21	> 100 µM	> 100 µM	> 100 µM	> 100 µM	> 100 µM	> 100 µM	> 100 µM	> 100 µM	> 100 µM	> 100 µM
COc1ccccc1C1Nn2c(nc3ccccc3c2=O)N1c1ccc(C)cc1 (centres undefined)	20.3 µM	27.9 µM	68.6 µM	19.7 µM	16.9 µM	17.5 µM	33.8 µM	21.2 µM	21.2 µM	28.2 µM
O=C1NC2CCCCC2N=C1CC(=O)c1ccc(Br)cc1 (centres undefined)	> 100 µM	42.1 µM	94.2 µM	> 100 µM	> 100 µM	> 100 µM	> 100 µM	> 100 µM	> 100 µM	> 100 µM
Cc1cc(C)nc(NS(=O)(=O)c2ccc(Nc3c4ccccc4nc4c(C(=O)N5CCN(CCOS(C)(=O)=O)CC5)cccc34)cc2)n1	> 100 µM			> 100 µM	> 100 µM	> 100 µM	> 100 µM	> 100 µM	> 100 µM	
COc1ccccc1CN=C1Nc2ccncc2S(=O)(=O)N1c1ccccc1	> 100 µM	> 100 µM	> 100 µM	> 100 µM	> 100 µM	> 100 µM	> 100 µM	> 100 µM	> 100 µM	> 100 µM
